Converted amounts (≈) assume the structure as drawn. No end group written: not given here.
Legend:
physchem = format: physicochemical
Method: This oligopeptide was synthesized in the form of the trifluoroacetic acid salt using an Applied Biosystem 431A peptide synthesizer, on an HMP resin (Applied Biosystem) and according to an FMOC strategy. After the synthesis, the peptide was released from the resin by treatment for 90 minutes in the presence of 1/19 water/TFA solution. After filtration, the solution is concentrated on a rotary evaporator and the peptide is then precipitated twice, by addition of tert-butyl methyl ether, from a solution in TFA. The final pellet is washed with tert-butyl methyl ether and then dried. The peptide is dissolved in 5 ml of water, filtered and purified by reverse-phase HPLC on a C18 100 A column (Biorad RSL). The peptide is purified by with the aid of a gradient of 0 to 25% of acetonitrile, 0.07% TFA in water 0.07% TFA. The purity of the peptide obtained is greater than 95% and its solubility in water is 100 mg/ml.
This oligopeptide was synthesized in the form of the trifluoroacetic acid salt according to the procedure described above, using 2/40/3/1/2 (v/v) water/TFA/phenol/ethanedithiol/thioanisole solution for the cleavage. The purity of the peptide obtained is greater than 95% and its solubility in water is 100 mg/ml at pH 2.1.
These oligopeptides are synthesized in the form of the trifluoroacetic acid salts according to the procedure described above. To do this, the resin is divided into two batches. A first batch intended for the synthesis of H is treated for the cleavage with 40/3/1/2/2 (v/v) TFA/phenol/ethanedithiol/thioanisole/water solution. The purity of the peptide obtained is greater than 90% and its solubility in water is 10 mg/ml at pH 2.1. The synthesis is continued on the second batch of resin so as to obtain nls-βAla-H. The cleavage solution used is identical to the previous one. The purity of the peptide obtained is greater than 95% and its solubility in water is 10 mg/ml at pH 2.1.

NIH 3T3 cells = assay: in vitro transfer of nucleic acid into NIH 3T3 cells with DOGS (luciferase activity); format: cell-based; details: 0.25 μg compound
Method: (§1) 1. A mixture of 10 μl composed of the following is prepared:
0.5 μg of pCMV-luc plasma DNA, 0.25 μg of a compound according to the invention, in a buffer solution as identified,
40 mM dioctadecylamidoglycylspermine (DOGS) in charge ratios X as indicated in each of the tests. 2. 5·10^4 cells from the NIH3T3 lines are incubated with the above mixture at 37° C., under an atmosphere of 5% CO2 for 4 hours. The cells are then washed and recultured for 48 hours in a medium containing 10% serum (DMEM 10% SVF).
The cell carpet is then lysed in 50 μl of lysis buffer (Promega), recovered and then centrifuged at 20,000 g for 5 minutes.
The luciferase activity is measured on 4 μl of supernatant by adding 20 μl of substrate (Promega). The reading is taken on a LKB luminometer, cumulating the RLUs (relative light units) over 20 seconds.
3. Compaction in 150 mM NaCl, 10 mM HEPES* (* N-(2-hydroxyethyl)piperazine-N'-(2-ethanesulphonic acid) at pH 7.1
4. Compaction in 5% D-glucose, 150 mM NaCl, with 10 mM HEPES (pH of the compaction solution: 7.2)

NIH3T3 cells [1] = assay: Variation of compound/DNA ratio in the presence of DOGS, luciferase activity; format: cell-based; details: PEP/DNA w/v 0 (no peptide); DOGS charge ratio 1.8x; 0.75 μg DNA
Method: as §1
0.75 μg of pCMV-luc plasma DNA and a compound according to the invention in the ratio indicated, in 5% D-glucose, 150 mM NaCl buffer solution, with 10 mM HEPES (pH of the compaction solution: 7.2),
40 mM dioctadecylamidoglycylspermine (DOGS) in a charge ratio of 1.8×.
(§2) 2. 4·10^5 cells from NIH3T3 lines are incubated with the above mixture at 37° C., under an atmosphere of 5% CO2 for 4 hours. The cells are then washed and recultured for 48 hours in a medium containing 10% serum (DMEM 10% SVF). The cell carpet is then lysed, 45 hours after the transfection, in 100 μl of lysis buffer (Promega), recovered and then centrifuged at 20,000 g for 5 minutes. The luciferase activity is measured on 5 μl of the supernatant, adding 25 μl of substrate (Promega). The reading is taken on an LKB luminometer, cumulating the RLUs (relative light units) over 20 seconds.

3LL cells = assay: In vitro transfer of nucleic acid into 3LL cells, luciferase activity; format: cell-based; details: 0.5 μg DNA, 0.5 μg peptide, 75 mM NaCl
Method: A mixture of 10 μl composed of the following is prepared: 0.5 μg of pCMV-luc plasmid DNA, 0.5 μg of PR1 or PR2 a compound according to the invention, in a solution of 75 mM NaCl final lipopolyamine C (RPR 120535) in charge ratios as indicated in each of the tests listed in Table 11 below. 1×10^5 3LL cells (in 250 μl of DMEM culture medium with 10% foetal calf serum) are incubated with the above mixture at 37° C. under a 5% CO2 atmosphere for 4 hours. 500 μl of culture medium are added and the cells are recultured. The following day, the cells are washed and recultured for 24 hours in the same medium containing 10% foetal calf serum. The cell carpet is then lysed in 100 μl of lysis buffer (Promega). The luciferase activity is measured by adding 50 μl of substrate (Promega). The reading is taken on an LB luminometer by cumulating the RLUs (relative light nits) over 10 seconds.

[2] = test system: tumours of type 3LL (Lewis Lung carcinoma); assay: In vivo transfer into tumour cells (3LL tumours), luciferase activity; parameters: species or system mice; details: no peptide
Method: The corresponding tests are carried out on adult (>8 weeks) female C57/BL mice carrying tumours of type 3LL (Lewis Lung carcinoma) obtained by passing fragments of tumour from animal to animal, implanted under the skin of the flank.
As regards the solutions injected, they are prepared as follows: the DNA is first dissolved in the buffer, the peptide is then optionally added and, after 20 minutes, a solution of cationic lipids at high concentration (20 or 40 mM) is added to the mixture. After addition of all these products, the mixture contains, besides the DNA, the peptide and the cationic lipid, 150 mM NaCl, 5% D-glucose and 5 mM MES pH 6.2. In the case of the last two series with lipopolyamine C (RPR 120 535), the injection vehicle is 75 mM NaCl and 150 mM NaCl, 5% D-glucose respectively. The injection is made 20 to 30 minutes after the solution has been prepared.
Each transfecting composition (see Tables 9 and 10 for their respective specificities) is injected into the tumour 7 days after implantation, the mouse being anaesthetized with a ketamine 130 mg/kg+xylazine (4 mg/kg) mixture.
Two days after the injection, the tumour tissue is removed, weighed and then chopped up and ground in 500 μl of lysis buffer (Promega cell lysis buffer E153 A). After centrifugation (20,000 g for 10 minutes), 10 μl are taken and used to evaluate the luciferase activity by measuring the total light emission obtained after mixing with 50 μl of reagent (Promega luciferase assay substrate) in a Lumat LB 9501 luminometer (Berthold), with integration over 10 seconds.
The resulting activity is expressed as RLUs (relative light units) estimated in the entire tumour lysis supernatant, or as RLU per μg of DNA injected.

NIH3T3 cells [3] = assay: Variation of compound/DNA ratio in the presence of lipopolyamine A, luciferase activity; format: cell-based; details: Compound/DNA ratio 0
Method: as §1
0.55 μg of pCNV-luc plasma DNA and a compound according to the invention, in the ratio indicated, in 150 mM NaCl buffer solution,
1,3-bis (3-aminopropylamino) -2-propyl (dioctadecyl-carbamoylmethoxy)acetate in the charge ratios indicated.
as §2, with “2. 5·10^4” for “2. 4·10^5”, “on 10” for “on 5”, “adding 50” for “adding 25”, “on a Berthold lumat 9501®” for “on an LKB”, “over 10” for “over 20”

With “KTPKKAKKPKTPKKAKKP [H, LysThrProLysLysAlaLysLysProLysThrProLysLysAlaLysLysPro (COOH) (SEQ ID No.:4)]” the solubility (physchem; pH 2.1, water) was 10 mg/mL.
Work on `CC(C)[C@H](NC(=O)[C@H](CCCCN)NC(=O)[C@H](CCCNC(=N)N)NC(=O)[C@H](CCCCN)NC(=O)[C@H](CCCCN)NC(=O)[C@H](CCCCN)NC(=O)[C@@H]1CCCN1)C(=O)NCCC(=O)N[C@@H](CCCCN)C(=O)N[C@H](C(=O)N1CCC[C@H]1C(=O)N[C@@H](CCCCN)C(=O)N[C@@H](CCCCN)C(=O)N[C@@H](C)C(=O)N[C@@H](CCCCN)C(=O)N[C@@H](CCCCN)C(=O)N1CCC[C@H]1C(=O)N[C@@H](CCCCN)C(=O)N[C@H](C(=O)N1CCC[C@H]1C(=O)N[C@@H](CCCCN)C(=O)N[C@@H](CCCCN)C(=O)N[C@@H](C)C(=O)N[C@@H](CCCCN)C(=O)N[C@@H](CCCCN)C(=O)N1CCC[C@H]1C(=O)O)[C@@H](C)O)[C@@H](C)O` [nls-H, ProLysLysLysArgLysVal-βAlaLysThrProLysLysAlaLysLysProLysThrProLysLysAlaLysLysPro (COOH) (SEQ ID No.9)] yielded a solubility (physchem; pH 2.1, water) of 10 mg/mL (≈ 3.37 mM).
Compound `CCCCCCCCCCCCCCCCCCN(CCCCCCCCCCCCCCCCCC)C(=O)CNC(=O)C(CCCNCCCN)NCCCN` (stereo not shown) [DOGS, dioctadecylamidoglycylspermine] has a luciferase activity (NIH 3T3 cells; Table 1, DOGS/DNA charge ratio 0.8x, compaction in 150 mM NaCl, 10 mM HEPES pH 7.1, 0.5 μg pCMV-luc) of 32 R.L.U, a luciferase activity (NIH 3T3 cells; Table 1, DOGS/DNA charge ratio 1.8x, 150 mM NaCl, 10 mM HEPES pH 7.1, 0.5 μg pCMV-luc) of 220 R.L.U and a luciferase activity (NIH 3T3 cells; Table 1, DOGS/DNA charge ratio 3x, 150 mM NaCl, 10 mM HEPES pH 7.1, 0.5 μg pCMV-luc) of 5400 R.L.U. The luciferase activity (NIH 3T3 cells; Table 2, DOGS/DNA charge ratio 0.8x, 5% D-glucose, 150 mM NaCl, 10 mM HEPES pH 7.2, 0.5 μg DNA) was 880 R.L.U, the luciferase activity (NIH 3T3 cells; Table 2, DOGS/DNA charge ratio 1.8x, 5% D-glucose, 150 mM NaCl, 10 mM HEPES pH 7.2, 0.5 μg DNA) was 6600 R.L.U and the luciferase activity (NIH 3T3 cells; Table 2, DOGS/DNA charge ratio 3x, 5% D-glucose, 150 mM NaCl, 10 mM HEPES pH 7.2, 0.5 μg DNA) was 22000 R.L.U. For the same compound, the luciferase activity (NIH3T3 cells [1]) was 2150 RLU.
In the case of `CCCCCCCCCCCCCCCCCCN(CCCCCCCCCCCCCCCCCC)C(=O)CNC(=O)CNCCCNCCCCNCCCN` [Lipopolyamine C, H2 N(CH2)3 NH(CH2)4 NH(CH2)3 NHCH2 COGlyN[(CH2)18]2], the luciferase activity (3LL cells; Table 11, Lipopolyamine C/DNA charge ratio 4x) is reported as 107 289 RLU, the luciferase activity (3LL cells; Table 11, Lipopolyamine C/DNA charge ratio 6x) is reported as 77 396 RLU and the luciferase activity (3LL cells; Table 11, Lipopolyamine C/DNA charge ratio 8x) is reported as 14 512 RLU. The luciferase activity (3LL cells; Table 12, Lipopolyamine C/DNA charge ratio 4x) was 12 037 RLU, the luciferase activity (3LL cells; Table 12, Lipopolyamine C/DNA charge ratio 6x) was 901 RLU and the luciferase activity (3LL cells; Table 12, Lipopolyamine C/DNA charge ratio 8x) was 328 RLU. For the same compound, the “Result, RLU/tumour average” value ([2]; 18.75 μg DNA/tumour, 0.25 μg/μl, cationic lipid C 2 nmol/μg DNA, vehicle 75 mM NaCl) was 222 700 RLU/tumour and the “Result, RLU/tumour average” value ([2]; 20 μg DNA/tumour, 0.5 μg/μl, cationic lipid C 4 nmol/μg DNA, vehicle 150 mM NaCl, 5% D-glucose) was 806 467 RLU/tumour.
Work on “ATPAKKAAATPAKKAA [N, AlaThrProAlaLysLysAlaAlaAlaThrProAlaLysLysAlaAla (COOH) (SEQ ID No.:3)]” yielded a solubility (physchem; water) of 100 mg/mL.
With `CC(C)[C@H](NC(=O)[C@H](CCCCN)NC(=O)[C@H](CCCNC(=N)N)NC(=O)[C@H](CCCCN)NC(=O)[C@H](CCCCN)NC(=O)[C@H](CCCCN)NC(=O)[C@@H]1CCCN1)C(=O)O` [nls, ProLysLysLysArgLysVal] the solubility (physchem; pH 2.1, water) was 100 mg/mL (≈ 113 mM).
In the case of `CCCCCCCCCCCCCCCCCCN(CCCCCCCCCCCCCCCCCC)C(=O)COCC(=O)OC(CNCCCN)CNCCCN` [lipopolyamine A, d,1-3-bis(3-aminopropylamino)-2-propyl (dioctadecyl-carbamoylmethoxy)acetate], the “Result, RLU/tumour average” value ([2]; 7.5 μg DNA/tumour, 0.5 μg/μl, cationic lipid A 3 nmol/μg DNA) is reported as 88 712 RLU/tumour, the “Result, RLU/tumour average” value ([2]; 20 μg DNA/tumour, 2 μg/μl, cationic lipid A 1.8 nmol/μg DNA) is reported as 142 300 RLU/tumour and the “Result, RLU/tumour average” value ([2]; 30 μg DNA/tumour, 2 μg/μl, cationic lipid A 3 nmol/μg DNA) is reported as 99 775 RLU/tumour. For the same compound, the luciferase activity (NIH3T3 cells [3]; lipopolyamine A 3x) was 8.9 10^6 RLU, the luciferase activity (NIH3T3 cells [3]; lipopolyamine A 6x) was 6.2 10^6 RLU and the luciferase activity (NIH3T3 cells [3]; lipopolyamine A NH2/DNA phosphates 1.8x) was 3.9 10^6 RLU.

Reference: patent US5945400A, “Nucleic acid-containing composition, preparation and use thereof” (Rhone-Poulenc Rorer SA, priority 1995, dated 1999)
